Results reported in ChEMBL document CHEMBL4190341, “Synthesis and bioevaluation of 1-phenyl-pyrazole-4-carboxylic acid derivatives as potent xanthine oxidoreductase inhibitors” (Eur J Med Chem, 2017).
The source made the active and inactive calls. The rule behind the calls is not given here.

Legend:
[1] = target: T1, Xanthine dehydrogenase/oxidase (Bos taurus, UniProt P80457); test: Inhibition of bovine milk xanthine oxidoreductase pre-incubated for 3 mins followed xanthine substrate addition and measured every 1 mins for 10 mins by spectrophotometry
T1 sequence (P80457 whole entry): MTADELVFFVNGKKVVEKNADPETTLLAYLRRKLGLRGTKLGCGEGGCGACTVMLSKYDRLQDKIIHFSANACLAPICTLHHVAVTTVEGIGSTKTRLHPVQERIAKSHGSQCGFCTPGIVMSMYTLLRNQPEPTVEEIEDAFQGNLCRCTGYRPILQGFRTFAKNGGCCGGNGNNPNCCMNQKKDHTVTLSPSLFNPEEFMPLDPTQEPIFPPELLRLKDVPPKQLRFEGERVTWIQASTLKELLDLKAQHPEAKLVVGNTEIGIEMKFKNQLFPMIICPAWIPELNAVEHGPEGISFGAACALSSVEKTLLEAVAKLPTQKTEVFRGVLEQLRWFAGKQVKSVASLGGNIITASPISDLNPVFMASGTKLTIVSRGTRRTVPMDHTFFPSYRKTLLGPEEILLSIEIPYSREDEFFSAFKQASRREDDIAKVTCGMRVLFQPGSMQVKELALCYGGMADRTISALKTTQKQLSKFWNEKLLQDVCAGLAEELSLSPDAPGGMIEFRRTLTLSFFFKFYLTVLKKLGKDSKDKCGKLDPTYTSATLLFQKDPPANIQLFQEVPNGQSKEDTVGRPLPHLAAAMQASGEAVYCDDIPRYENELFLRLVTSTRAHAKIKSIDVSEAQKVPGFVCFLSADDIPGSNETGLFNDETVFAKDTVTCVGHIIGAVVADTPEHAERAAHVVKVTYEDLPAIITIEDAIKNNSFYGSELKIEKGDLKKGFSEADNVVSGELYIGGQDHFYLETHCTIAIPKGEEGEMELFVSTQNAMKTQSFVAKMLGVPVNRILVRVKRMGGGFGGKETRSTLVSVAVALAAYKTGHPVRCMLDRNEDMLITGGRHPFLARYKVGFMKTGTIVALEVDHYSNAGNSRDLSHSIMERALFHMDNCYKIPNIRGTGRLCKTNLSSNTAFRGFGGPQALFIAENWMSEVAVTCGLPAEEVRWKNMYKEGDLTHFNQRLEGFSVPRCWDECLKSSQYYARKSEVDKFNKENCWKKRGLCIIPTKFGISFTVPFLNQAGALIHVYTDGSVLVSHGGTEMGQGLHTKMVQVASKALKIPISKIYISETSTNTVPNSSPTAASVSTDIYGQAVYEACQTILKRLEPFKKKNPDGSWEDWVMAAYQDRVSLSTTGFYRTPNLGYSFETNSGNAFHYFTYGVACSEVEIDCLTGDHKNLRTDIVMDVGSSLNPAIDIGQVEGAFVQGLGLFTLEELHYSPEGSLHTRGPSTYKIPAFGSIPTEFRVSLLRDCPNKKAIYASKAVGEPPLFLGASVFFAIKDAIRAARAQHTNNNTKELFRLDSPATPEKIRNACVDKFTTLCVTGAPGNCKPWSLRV

[2] = Tmax in rat at 10 mg/kg, po measured during 5 mins to 24 hrs post dose by LC-MS/MS method; format: ADME, organism-based; settings: in vivo
[3] = Half life in rat at 10 mg/kg, po measured during 5 mins to 24 hrs post dose by LC-MS/MS method; format: ADME, organism-based; settings: in vivo
Rattus norvegicus = test: AUC (0 to infinity) in rat at 10 mg/kg, po measured during 5 mins to 24 hrs post dose by LC-MS/MS method; format: ADME, organism-based; parameters: dose 10 mg/kg, time infinity, route oral; settings: in vivo
Mus musculus [4] = test: Hypouricemic effect in ICR mouse model of potassium oxonate and hypoxanthine-induced acute hyperuricemia assessed as reduction in serum uric acids level at 5 mg/kg, po dosed 1 hr after potassium oxonate and hypoxanthine challenge and measured after 1 hr post dose; format: functional, organism-based
[5] = Cmax in rat at 10 mg/kg, po measured during 5 mins to 24 hrs post dose by LC-MS/MS method; format: ADME, organism-based; parameters: dose 10 mg/kg, route oral; settings: in vivo
Mus musculus [6] = test: Hypouricemic effect in ICR mouse model of potassium oxonate and hypoxanthine-induced acute hyperuricemia assessed as reduction in serum uric acids level at 5 mg/kg, po dosed 1 hr after potassium oxonate and hypoxanthine challenge and measured after 1 to 4 hrs post dose; format: functional, organism-based
[7] = target: T1, Xanthine dehydrogenase/oxidase; test: Mixed type inhibition of bovine milk xanthine oxidoreductase pre-incubated for 3 mins using varying xanthine substrate levels and measured every 1 mins for 10 mins by spectrophotometry based Lineweaver-Burk plot; settings: cattle
[8] = Tmax in rat at 3 mg/kg, po measured during 5 mins to 24 hrs post dose by LC-MS/MS method; format: ADME, organism-based; settings: in vivo

| SMILES | IC50 [1] | other results |
| --- | --- | --- |
| Cc1nn(-c2ccc(N3CCCCC3)c([N+](=O)[O-])c2)cc1C(=O)O | 59.6 nM | – |
| Cc1nn(-c2ccc(OCC(C)(C)C)c(C#N)c2)cc1C(=O)O | 23 nM | – |
| CC(C)CN(C)c1ccc(-n2cc(C(=O)O)cn2)cc1C#N | 5.7 nM | Tmax [2]: 1 h; half-life [3]: 5 h; AUC (Rattus norvegicus): 607 ng·h/mL; Activity (Mus musculus [4]): Active; Cmax [5]: 168 ng/mL; Activity (Mus musculus [6]): Active; inhibition (INH) [7]: Active |
| N#Cc1cc(-n2cc(C(=O)O)cn2)ccc1N1CCCCC1 | 4.2 nM | Activity (Mus musculus [4]): Active; Activity (Mus musculus [6]): Active |
| CC(C)CNc1ccc(-n2cc(C(=O)O)cn2)cc1C#N | 7.7 nM | – |
| CCOc1ccc(-n2cc(C(=O)O)c(C(F)(F)F)n2)cc1C#N | > 100 nM | – |
| CC1CCCN1c1ccc(-n2cc(C(=O)O)cn2)cc1C#N (stereo not given) | 6.7 nM | – |
| CCCCCCCCOc1ccc(-n2cc(C(=O)O)c(C(F)(F)F)n2)cc1C#N | > 100 nM | – |
| CC(C)(C)COc1ccc(-n2cc(C(=O)O)cn2)cc1C#N | – | Tmax [8]: 0.5 h |
| Cc1nc(-c2ccc(OCC(C)C)c(C#N)c2)sc1C(=O)O | – | Activity (Mus musculus [4]): Active |
| CC(C)(C)COc1ccc(-n2cc(C(=O)O)c(C(F)(F)F)n2)cc1C#N | > 100 nM | – |
| Cc1nn(-c2ccc(N3CCOCC3)c(C#N)c2)cc1C(=O)O | > 100 nM | – |
| CCOc1ccc(-n2cc(C(=O)O)c(C)n2)cc1C#N | > 100 nM | – |

The next lines start with results.

| IC50 [1] | SMILES | other results |
| --- | --- | --- |
| > 100 nM | CC(C)COc1ccc(-n2cc(C(=O)O)c(C(F)(F)F)n2)cc1C#N | – |
| 5.7 nM | N#Cc1cc(-n2cc(C(=O)O)cn2)ccc1N1CCCC1 | – |
| 45 nM | Cc1nn(-c2ccc(OC(C)C)c(C#N)c2)cc1C(=O)O | – |
| 13.3 nM | Cc1nn(-c2ccc(N3CCCCC3)c(C#N)c2)cc1C(=O)O | – |
| > 100 nM | CC(C)Oc1ccc(-n2cc(C(=O)O)c(C(F)(F)F)n2)cc1C#N | – |
| 10.8 nM | CN(C)c1ccc(-n2cc(C(=O)O)cn2)cc1C#N | – |
| > 100 nM | Cc1nn(-c2ccc(N3CCOCC3)c([N+](=O)[O-])c2)cc1C(=O)O | – |
| > 100 nM | CCCCCCCCOc1ccc(-n2cc(C(=O)O)c(C)n2)cc1C#N | – |
